In the experiment the test system is Boophilus annulatus. As to the kind of experiment: Whole-body spray treatment of Boophilus annulatus infestations on cattle. Type of experiment: in vivo. As to the method:
C) Efficacy Testing and comparison of topically applied spinetoram with spinosad for the treatment of Boophilus annulatus infestations on cattle. Technical spinetoram and technical spinosad both formulated as 25 g/L suspension concentrate formulations similar to commercial Elector. Stability assays (HPLC and LPT bioassays) were conducted to confirm potency over extended periods of time (5 weeks) at cool and shelf-temperatures. Cattle were pre-infested 21 d prior to treatment with larval-stage B. annulatus ticks resulting the presence of very high numbers of all three life-stages of this tick at the time of treatment. Test materials were diluted to 0.025% (250 ppm) and applied to cattle as whole-body topical sprays in a volume of 10 L per animal. There were a total of six animals per treatment group (n=6). Animals were housed in covered stalls under ambient conditions of temperature and humidity. Engorged, detached adult female ticks were retrieved from animals in each stall on a daily basis. Egg masses were weighed and eggs were set for hatching to assess viability. Efficacy was measured in terms of total numbers of female ticks per animal and index of fecundity (IF).
Means were tested by General Linear Model (GLM), 1-way ANOVA. Differences (P<0.05) among means were separated using Tukey's all pairwise comparison. Means within the same column followed by different letters were significant at the P<0.05 level.
Means were tested by General Linear Model (GLM), 2-way ANOVA with parasitic life stage and treatment group as main effects. NS denotes not significant.

[1] abbreviates: cattle, 0.025% AI whole-body spray, mean ± SD.

In the case of Spinetoram, the “initial/knockdown activity against B. annulatus” value (cattle, 0.025% AI) is reported as “poor”. Further, under setting [1], the “Number ♀♀ Ticks per Calf” value stood at 2405 ± 306 a and the “Total Index of Fecundity (IF)” value was determined as 287 ± 35.4 a. For the same substance, the “Percentage Control of the IF” value (cattle, 0.025% AI whole-body spray, therapeutic efficacy) is listed as 28.0 ± 8.9 a %. The “Percentage control, Adult” value (parasitic life stage adult, 0.025% AI) is given as 17.2 ± 25.0%. The “Percentage control, Larval” value (parasitic life stage larva, 0.025% AI) was found to be 38.6 ± 10.6%. Also, the “Percentage control, Nymph” value (parasitic life stage nymph, 0.025% AI) is 31.6 ± 20.8%. The “residual efficacy, mean percentage control of the IF, Week 1” value (ticks infested as larvae Week 1 after treatment) was found to be 95.3 ± 3.3%. In addition, where the note is “ticks infested as larvae Week 2 after treatment”, the “residual efficacy, mean percentage control of the IF, Week 2” value is 96.7 ± 2.3%. The “residual efficacy, mean percentage control of the IF, Week 3” value (ticks infested as larvae Week 3 after treatment) came to 89.3 ± 8.0%. For the same substance, where the note is “ticks infested as larvae Week 4 after treatment”, the “residual efficacy, mean percentage control of the IF, Week 4” value was 80.4 ± 11.5%.
